# Laboratory results: patent publication US20080262019A1, “Optical Isomers of (+) and (-)-Trans-2,3,4,4A,5,9B-Hexahydro-2,8-Dimethyl-1H-Pyrido[4,3-B] Indole” (priority 2005, published 2008)
# Entries after “also recorded” stand apart in the source; their conditions may differ. Marks after values point to notes of the source that are not given here.
# System: male C57BL/6 mice
# Experiment: spontaneous orientation (patroling behavior) test in the closed cross maze
# Assay type: in vivo
# Details: for F_PtrN, duration of the first patroling cycle (number of arm visits), M / L_TrnN, number of left turns, M / PatrlN, number of patrolling cycles, M / R_TrnN, number of right turns, M / S_PtrN, duration of the second patrolling cycle (number of arm visits), M / S_VisN, spontaneous stereotype behavior, M / T_GlTm, total time spent in the side arms of the maze, M / rl_Ind, asymmetry index of turns, M / F_ChTm, latency of the first arm visit, M / F_GlTm, length of the first arm visit, M / T_ChTm, total time spent in the central compartment of the maze, M / F_PasN, M: 1 hour after treatment; for nootropic effect (decrease in F_PtrN and S_PtrN, increase in PatrlN): single administration into stomach
# Protocol: Preclinical evaluation of nootropic and sedative activity of the compounds was performed in mice using spontaneous orientation (patroling behavior) test in the cross maze, that allows simultaneous evaluation of nootropic, tranquilizing, sedative and psychostimulating effects of the compounds.
# For evaluation of the exploratory behavior of the animals the closed cross maze test was used (Salimov R. M., Evaluation of the ordering of the way in the process of exploratory behavior in mice. Journal of the Higher Nervous Activity, 1988, v. 38, #3, pp. 569-571).
# The mouse was placed in the central compartment of the maze and the sequence of its visits in different compartments was recorded semi-automatically.
# Test was completed after 12 visits (Salimov R. M., Evaluation of the ordering of the way in the process of exploratory behavior in mice. Journal of the Higher Nervous Activity, 1988, v.38, #3, pp. 569-571; Salimov R. M., McBride W. J., Sinclair J. D., Lumeng L., Li T. -K. Performance in the cross-maze and slip funnel tests of four pairs of rat lines selectively bred for divergent alcohol drinking behavior. Addict. Biol. 1996a, 1:273-280; Salimov, R. M., McBride, W. J., McKenzie, D. L., Lumeng, L. and Li, T. -K. Ethanol consumption by adolescent alcohol-preferring P rats on subsequent behavioural performance in the cross-maze and slip funnel tests. Alcohol. 1996b, 13: c. 297-300).
# Subsequent computerized analysis of the record singled out a number of behavioral characteristics. The most informative among them were:
# 1) The total time spent by the animal in the central compartment of the maze—T_ChTm, and the total time spent by the animal in the side arms of the maze—T_GlTm.
# These variables reflect the level of the motor activity of the animal and also reflect the intensity of their exploratory drive for the new environment. […] Alcohol 20:61-68; 2000; Markina N. V., Salimov R. M., Poletaeva I. I. Exploratory behaviour of F2 crosses of mouse lines having selected for different brain weight: A multivariate analysis. Prog. Neuro-Psychopharmacol. Biol. Psychiat. 2004, 28(3):583-589).
# 2) The latency (variable F_ChTm) and the length of the first arm visit (F_GlTm).
# These variables reflect the level of anxiety of the animal in the new environment and can be used for the evaluation of the tranquilizing (anxiolythic) effect of the drug (Salimov, R. M. Different behavioral patterns related to alcohol use in rodents: A factor analysis. Alcohol. 1999, 17:157-162).
# 3) The duration of the first patroling cycle—variable F_PtrN, and the duration of the second patrolling cycle—variable S_PtrN.
# These variables are measured by the number of the animal's visits in the maze arms, performed by the animal for the exploration of the environment before it visits all 4 arms at least once (Salimov R. M., Evaluation of the ordering of the way in the process of exploratory behavior in mice. Journal of the Higher Nervous Activity, 1988, v.38, #3, pp. 569-571; Salimov R. M., McBride W. J., Sinclair J. D., Lumeng L., Li T. -K. Performance in the cross-maze and slip funnel tests of four pairs of rat lines selectively bred for divergent alcohol drinking behavior.
# 4) The number of patrolling cycles—variable PatriN, executed during the time of the experiment, as one of the characteristics of the efficiency of exploratory behavior. The more patroling cycles were accomplished, the more “systematic” and efficient was the exploration of the maze.
# Variables from groups 3 and 4 can be used for the evaluation of the nootropic activity of the drugs.
# 5) The number of right turns—variable R_TrnN, and the number of left turns—variable L_TrN, executed by the animals moving from one arm of the maze to the other, as well as asymmetry index—variable rl_Ind—of these turns:
# rl_Ind ═R_TrnN*(R_TrnN+L_TrnN)^−1
# 6) The spontaneous stereotype behavior—variable S_VisN, that characterizes animal's visiting two arms of the maze in turn more than two times in a row. […]
# [1] = 2.5 mg/kg, single dose into stomach, N = 12
# [2] = 2.5 mg/kg, single dose into stomach, N = 12, in s (unit assumed)
# [3] = 5.0 mg/kg, single dose into stomach, N = 12
# [4] = 5.0 mg/kg, single dose into stomach, N = 12, in s (unit assumed)
# [5] = single administration, 2.5 and 5.0 mg/kg doses
# [6] = 1 mg/kg, single dose, N = 15, in s (unit assumed)
# [7] = single administration 0.5 mg/kg
# [8] = 100 mg/kg, single dose into stomach, N = 15
# [9] = 100 mg/kg, single dose into stomach, N = 15, in s (unit assumed)
# [10] = 300 mg/kg, single dose into stomach, N = 15
# [11] = 300 mg/kg, single dose into stomach, N = 15, in s (unit assumed)
compound,measurement,setting,value
"Cc1ccc2c(c1)[C@@H]1CN(C)CC[C@H]1N2 [Trans-(−)-isomer, (−)-trans-2,3,4,4a,5,9b-hexahydro-2,8-dimethyl-1H-pyrido[4,3-b]indole]","F_PtrN, duration of the first patroling cycle (number of arm visits), M",[1],6.10
same,"L_TrnN, number of left turns, M",[1],3.00
same,"PatrlN, number of patrolling cycles, M",[1],1.67
same,"R_TrnN, number of right turns, M",[1],3.08
same,"S_PtrN, duration of the second patrolling cycle (number of arm visits), M",[1],4.43*^+
same,"S_VisN, spontaneous stereotype behavior, M",[1],6.33
same,"T_GlTm, total time spent in the side arms of the maze, M",[1],166.78*^+
same,"rl_Ind, asymmetry index of turns, M",[1],0.50
same,"F_ChTm, latency of the first arm visit, M",[2],10.75
same,"F_GlTm, length of the first arm visit, M",[2],20.27
same,"T_ChTm, total time spent in the central compartment of the maze, M",[2],33.10
same,"F_PtrN, duration of the first patroling cycle (number of arm visits), M",[3],5.42
same,"L_TrnN, number of left turns, M",[3],3.83
same,"PatrlN, number of patrolling cycles, M",[3],2.08
same,"R_TrnN, number of right turns, M",[3],5.08*
same,"S_PtrN, duration of the second patrolling cycle (number of arm visits), M",[3],5.00^+
same,"S_VisN, spontaneous stereotype behavior, M",[3],4.17*
same,"T_GlTm, total time spent in the side arms of the maze, M",[3],238.16*^+
same,"rl_Ind, asymmetry index of turns, M",[3],0.58
same,"F_ChTm, latency of the first arm visit, M",[4],8.33
same,"F_GlTm, length of the first arm visit, M",[4],33.62*
same,"T_ChTm, total time spent in the central compartment of the maze, M",[4],42.23*
same,"nootropic effect (improvement in the patrolling behavior, decrease in S_PtrN)",[5],nootropic effect
same,sedative effect (reduction in the speed of movement in the maze; increase in T_ChTm and T_GlTm),[5],sedative effect
same,"spontaneous stereotype behavior (variable S_VisN), change","single administration, 2.5 and 5.0 mg/kg doses, listed as (−)-trans-2,8-dimethyl-2,3,4,4a,5,9b-hexahydro-1H-pyrido[4,3-b]indole",significantly decreased; also recorded: decrease
"O=C(CCCN1CCC(O)(c2ccc(Cl)cc2)CC1)c1ccc(F)cc1 [Haloperidol, reference compound]","F_PtrN, duration of the first patroling cycle (number of arm visits), M","1 mg/kg, single dose, N = 15",6.09
same,"L_TrnN, number of left turns, M","1 mg/kg, single dose, N = 15",3.36
same,"PatrlN, number of patrolling cycles, M","1 mg/kg, single dose, N = 15",1.91
same,"R_TrnN, number of right turns, M","1 mg/kg, single dose, N = 15",3.91
same,"S_PtrN, duration of the second patrolling cycle (number of arm visits), M","1 mg/kg, single dose, N = 15",5.20
same,"S_VisN, spontaneous stereotype behavior, M","1 mg/kg, single dose, N = 15",2.35*
same,"rl_Ind, asymmetry index of turns, M","1 mg/kg, single dose, N = 15",0.54
same,"F_ChTm, latency of the first arm visit, M",[6],19.30*
same,"F_GlTm, length of the first arm visit, M",[6],31.85*
same,"T_ChTm, total time spent in the central compartment of the maze, M",[6],100.65*
same,"T_GlTm, total time spent in the side arms of the maze, M",[6],284.67*
same,sedative effect (reduction in the speed of movement in the maze; increase in T_ChTm and T_GlTm),[7],sedative effect
same,"spontaneous stereotype behavior (variable S_VisN), change",[7],decrease
"CN(C)CCOC(=O)COc1ccc(Cl)cc1 [Meclofenaxate, reference compound]","F_PasN, M",[8],3.6
same,"F_PtrN, duration of the first patroling cycle (number of arm visits), M",[8],4.8*
same,"L_TrnN, number of left turns, M",[8],4.5
same,"PatrlN, number of patrolling cycles, M",[8],2.5*
same,"R_TrnN, number of right turns, M",[8],3.8
same,"S_PtrN, duration of the second patrolling cycle (number of arm visits), M",[8],4.6*
same,"S_VisN, spontaneous stereotype behavior, M",[8],3.7
same,"rl_Ind, asymmetry index of turns, M",[8],0.4
same,"F_ChTm, latency of the first arm visit, M",[9],15.4
same,"F_GlTm, length of the first arm visit, M",[9],29.1
same,"T_ChTm, total time spent in the central compartment of the maze, M",[9],40.5
same,"T_GlTm, total time spent in the side arms of the maze, M",[9],145.4
same,"nootropic effect (decrease in F_PtrN and S_PtrN, increase in PatrlN)",100 mg/kg,nootropic effect
"Cc1ccc2c(c1)[C@H]1CN(C)CC[C@@H]1N2 [Trans-(+)-isomer, (+)-trans-2,8-dimethyl-2,3,4,4a,5,9b-hexahydro-1H-pyrido[4,3-b]indole]","F_PtrN, duration of the first patroling cycle (number of arm visits), M",[1],5.75
same,"L_TrnN, number of left turns, M",[1],4.17
same,"PatrlN, number of patrolling cycles, M",[1],2.00
same,"R_TrnN, number of right turns, M",[1],2.67
same,"S_PtrN, duration of the second patrolling cycle (number of arm visits), M",[1],4.55*^+
same,"S_VisN, spontaneous stereotype behavior, M",[1],5.75
same,"T_GlTm, total time spent in the side arms of the maze, M",[1],271.98*^+
same,"rl_Ind, asymmetry index of turns, M",[1],0.39
same,"F_ChTm, latency of the first arm visit, M",[2],9.18
same,"F_GlTm, length of the first arm visit, M",[2],22.91
same,"T_ChTm, total time spent in the central compartment of the maze, M",[2],53.27*
same,"F_PtrN, duration of the first patroling cycle (number of arm visits), M",[3],6.30
same,"L_TrnN, number of left turns, M",[3],4.82
same,"PatrlN, number of patrolling cycles, M",[3],1.64
same,"R_TrnN, number of right turns, M",[3],3.09
same,"S_PtrN, duration of the second patrolling cycle (number of arm visits), M",[3],5.43^+
same,"S_VisN, spontaneous stereotype behavior, M",[3],5.55
same,"T_GlTm, total time spent in the side arms of the maze, M",[3],391.25*^+
same,"rl_Ind, asymmetry index of turns, M",[3],0.38
same,"F_ChTm, latency of the first arm visit, M",[4],24.60*
same,"F_GlTm, length of the first arm visit, M",[4],43.48*
same,"T_ChTm, total time spent in the central compartment of the maze, M",[4],58.27*
same,sedative effect compared with the other optic isomer,"(+)- versus (−)-trans isomer, 2.5 and 5.0 mg/kg",higher sedative effect
same,"nootropic effect (improvement in the patrolling behavior, decrease in S_PtrN)",[5],nootropic effect
same,sedative effect (reduction in the speed of movement in the maze; increase in T_ChTm and T_GlTm),[5],sedative effect
same,"spontaneous stereotype behavior (variable S_VisN), change",[5],did not demonstrate this ability
"NC(=O)CN1CCCC1=O [Piracetam, reference compound]","F_PasN, M",[10],4.1
same,"F_PtrN, duration of the first patroling cycle (number of arm visits), M",[10],4.5*
same,"L_TrnN, number of left turns, M",[10],4.5*
same,"PatrlN, number of patrolling cycles, M",[10],2.1
same,"R_TrnN, number of right turns, M",[10],3.4*
same,"S_PtrN, duration of the second patrolling cycle (number of arm visits), M",[10],5.4
same,"S_VisN, spontaneous stereotype behavior, M",[10],4.3*
same,"rl_Ind, asymmetry index of turns, M",[10],0.4*
same,"F_ChTm, latency of the first arm visit, M",[11],11.6
same,"F_GlTm, length of the first arm visit, M",[11],25.0
same,"T_ChTm, total time spent in the central compartment of the maze, M",[11],46.1
same,"T_GlTm, total time spent in the side arms of the maze, M",[11],135.1
same,"nootropic effect (decrease in F_PtrN and S_PtrN, increase in PatrlN)",300 mg/kg,nootropic effect
